Values of other authors as cited in patent US20210315865A1 (Biohaven Therapeutics Ltd., priority 2018, published 2021).

Settings: taken with meals

food effect on exposure: reduced exposure when taken with meals
SMILES: Nc1nc2ccc(OC(F)(F)F)cc2s1 [riluzole, 6-(trifluoromethoxy)benzothiazol-2-amine]
